Source: ChEMBL document CHEMBL5325424, “Structural design, synthesis, and anti-Trypanosomatidae profile of new Pyridyl-thiazolidinones” (Eur J Med Chem, 2023)
Active and inactive are the calls of the source. The rule behind the calls is not given here.

Columns and labels:
Trypanosoma cruzi [1] = experiment: Antitrypanosomal activity against Trypanosoma cruzi Y trypomastigotes infected in African green monkey Vero cells assessed as parasite growth inhibition incubated for 24 hrs by hemocytometry; type: functional, organism-based
[2] = Selectivity index, ratio of CC50 for mouse RAW264.7 cells to IC50 for Leishmania amazonensis WHOM/00 LTB 0016 promastigotes; type: toxicity; conditions: read-out: Ratio CC50/IC50
Leishmania amazonensis [3] = experiment: Antileishmanial activity against Leishmania amazonensis WHOM/00 LTB 0016 amastigotes infected in mouse RAW264.7 cells assessed as parasite growth inhibition incubated for 24 hrs by panoptic staining based assay; type: functional, organism-based; conditions: WHOM/00 LTB 0016, RAW264.7, 24 h
[4] = Selectivity index, ratio of CC50 for mouse RAW264.7 cells to IC50 for Trypanosoma cruzi Y trypomastigotes infected in African green monkey Vero cells; type: toxicity; conditions: read-out: Ratio CC50/IC50
[5] = Cytotoxicity against mouse RAW264.7 cells incubated for 48 hrs by MTT assay; type: toxicity, cell-based
[6] = Selectivity index, ratio of CC50 for mouse RAW264.7 cells to IC50 for Leishmania amazonensis WHOM/00 LTB 0016 amastigotes infected in mouse RAW264.7 cells; type: toxicity, cell-based; conditions: read-out: Ratio CC50/IC50
Leishmania amazonensis [7] = experiment: Antileishmanial activity against Leishmania amazonensis WHOM/00 LTB 0016 promastigotes assessed as parasite growth inhibition incubated for 72 hrs; type: functional, organism-based; conditions: WHOM/00 LTB 0016, 72 h
[8] = Selectivity index, ratio of CC50 for mouse RAW264.7 cells to IC50 for Trypanosoma cruzi Tulahuen amastigotes infected in mouse L929 cells; type: toxicity, cell-based; conditions: read-out: Ratio CC50/IC50
Trypanosoma cruzi [9] = experiment: Antitrypanosomal activity against Trypanosoma cruzi Tulahuen amastigotes infected in mouse L929 cells assessed as parasite growth inhibition measured after 7 days by CPRG/Nonidet based assay; type: functional, organism-based; conditions: L929, 168 h
Splenocyte = experiment: Immunomodulatory activity in mouse splenocytes assessed as reduction in IL-6 level at 10 ug/ml incubated for 24 hrs by flow cytometry; type: functional, cell-based; conditions: dose 10.0 µg/ml

SMILES | IC50 (Trypanosoma cruzi [1]) [µM] | selectivity ratio [2] | IC50 (Leishmania amazonensis [3]) [µM] | selectivity ratio [4] | CC50 at 48 h [5] [µM] | selectivity ratio [6] | IC50 (Leishmania amazonensis [7]) [µM] | selectivity ratio [8] | IC50 (Trypanosoma cruzi [9]) [µM] | Activity (Splenocyte)
CNC(=S)N/N=C(\C)c1ccncc1 | 51.1 | 2.43 | 481 | 11.1 | 567 | 1.18 | 233 | 2.4 | 235 | –
C/C(=N\N=C1\SC(C(C)C)C(=O)N1C)c1ccncc1 (stereo not given) | 344 | 0.5 | 68.9 | 1 | 356 | 5.17 | 689 | 5.17 | 68.9 | –
CC(C)C1S/C(=N/N=C/c2ccccn2)N(C)C1=O (stereo not given) | 11 | 13.2 | 18.6 | – | 267 | 14.3 | 20.2 | 355 | 0.75 | –
C/C(=N\N=C1\SC(C(C)C)C(=O)N1c1ccccc1)c1ccncc1 (stereo not given) | 1.5 | 13.2 | 5.7 | 197 | 296 | 51.9 | 22.4 | 332 | 0.89 | –
C/C(=N\N=C1/SCC(=O)N1c1ccccc1)c1ccccn1 | 4.2 | 0.9 | 322 | 53.2 | 223 | 0.69 | 259 | 25.5 | 8.74 | –
C/C(=N\NC(N)=S)c1ccncc1 | 168 | 4.5 | 515 | 2.76 | 464 | 0.9 | 104 | 1.91 | 242 | –
C/C(=N\N=C1/SCC(=O)N1c1ccccc1)c1ccncc1 | 322 | 0.2 | 323 | 0.5 | 155 | 0.48 | 644 | 250 | 0.62 | –
C/C(=N\N=C1/SCC(=O)N1C)c1ccccn1 | 111 | 0.6 | 80.5 | 2.6 | 291 | 3.61 | 506 | 3.61 | 80.5 | –
CC1(C)S/C(=N/N=C/c2ccccn2)NC1=O | 89.5 | 3.7 | 403 | 5 | 449 | 1.11 | 123 | 279 | 1.61 | –
O=C1CS/C(=N/N=C/c2ccccn2)N1 | 11.3 | 6 | 62.8 | 42.6 | 486 | 7.74 | 80.6 | 59.3 | 8.21 | –
CNC(=S)N/N=C(\C)c1ccccn1 | 84.4 | 0.1 | 27.2 | 0.08 | 7.49 | 0.27 | 69.5 | 9.75 | 0.76 | –
O=C1CS/C(=N/N=C/c2ccccn2)N1c1ccccc1 | 70.9 | 0.1 | 337 | 0.9 | 61.9 | 0.18 | 675 | 16.2 | 3.81 | –
C/C(=N\N=C1/SCC(=O)N1C)c1ccncc1 | 403 | 0.5 | 403 | 1.1 | 426 | 1.05 | 806 | 56.2 | 7.59 | –
C/C(=N\NC(=S)Nc1ccccc1)c1ccccn1 | 5.77 | 0.13 | 85.5 | 1 | 5.77 | 0.06 | 41.4 | 82.4 | 0.07 | –
C/C(=N\NC(=S)Nc1ccccc1)c1ccncc1 | 1.27 | 17.9 | 370 | 583 | 740 | 2 | 41.4 | 256 | 2.88 | –
CCCCCCCCCCCCCCCCOP(=O)([O-])OCC[N+](C)(C)C [MILTEFOSINE] | – | 8.79 | 7.08 | – | – | 17.5 | 15.8 | – | – | Active
C/C(=N\N=C1/NC(=O)CS1)c1ccncc1 | 185 | 0.3 | 427 | 1.5 | 276 | 0.64 | 854 | 43.8 | 6.3 | –
C/C(=N\NC(N)=S)c1ccccn1 | 138 | 0.8 | 515 | 0.11 | 16.1 | 0.03 | 20 | 11.6 | 1.39 | –
CN1C(=O)CS/C1=N/N=C/c1ccccn1 | 427 | 0.3 | 427 | 0.6 | 274 | 0.64 | 854 | 47.1 | 5.81 | –
CNC(=S)N/N=C/c1ccccn1 | 2.04 | 3.97 | 515 | 27 | 55.1 | 0.1 | 13.8 | 9.72 | 5.66 | –
N/C(S)=N/N=C/c1ccccn1 | 99.8 | 0.54 | 555 | 0.08 | 8.65 | 0.01 | 15.9 | 5.37 | 1.6 | –
C/C(=N\N=C1/NC(=O)C(C(C)C)S1)c1ccncc1 (stereo not given) | 362 | 0.2 | 72.4 | 0.5 | 179 | 2.46 | 724 | 2.46 | 72.4 | –
C/C(=N\N=C1\NC(=O)CS1)c1ccccn1 | 38 | 8.9 | 241 | 3.5 | 134 | 0.55 | 15.1 | 14.7 | 9.15 | –
CN1C(=O)C(C)(C)S/C1=N/N=C/c1ccccn1 | 53.9 | 10.1 | 380 | 7.2 | 387 | 1.01 | 38.3 | 477 | 0.81 | –
CC(C)C1S/C(=N/N=C/c2ccccn2)NC1=O (stereo not given) | 43.9 | 6.4 | 8.77 | 5.8 | 256 | 29.2 | 40.3 | 305 | 0.84 | –
